Results from PubChem BioAssay (NCI).
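1) Cells in 96-well plates. 2) Compound, 48 h, 5 concentrations. 3) Linear interpolation between surrounding doses. 4) Unreached endpoint = highest concentration. GI50 marks 50% less growth. The concentration for full growth arrest is given as TGI.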

Columns and labels:
Assay in all cases: inhibition of tumour cell growth, NCI panel, 48 h
NCI-H23 lung = test system: NCI-H23 lung
NCI-H460 lung = test system: NCI-H460 lung
NCI-H522 lung = test system: NCI-H522 lung
NCI/ADR-RES ovarian = test system: NCI/ADR-RES ovarian
OVCAR-3 ovarian = test system: OVCAR-3 ovarian
OVCAR-4 ovarian = test system: OVCAR-4 ovarian
OVCAR-5 ovarian = test system: OVCAR-5 ovarian
OVCAR-8 ovarian = test system: OVCAR-8 ovarian
PC-3 prostate = test system: PC-3 prostate
RPMI-8226 leukemia = test system: RPMI-8226 leukemia
RXF 393 renal = test system: RXF 393 renal
SF-268 CNS = test system: SF-268 CNS
SF-539 CNS = test system: SF-539 CNS
SK-MEL-2 melanoma = test system: SK-MEL-2 melanoma
SK-MEL-28 melanoma = test system: SK-MEL-28 melanoma
SK-MEL-5 melanoma = test system: SK-MEL-5 melanoma
SK-OV-3 ovarian = test system: SK-OV-3 ovarian
SN12C renal = test system: SN12C renal
SNB-19 CNS = test system: SNB-19 CNS
SNB-75 CNS = test system: SNB-75 CNS
SR leukemia = test system: SR leukemia
SW-620 colon = test system: SW-620 colon
T-47D breast = test system: T-47D breast
TK-10 renal = test system: TK-10 renal
U251 CNS = test system: U251 CNS
UACC-257 melanoma = test system: UACC-257 melanoma
UACC-62 melanoma = test system: UACC-62 melanoma
UO-31 renal = test system: UO-31 renal

Question: For COC1=C(OC)C(=O)C(CCCCCCCCCCO)=C(C)C1=O, which GI50 (NCI-H23 lung) is on record?
Answer: The GI50 was 3.17 µM.

Question: And the TGI (NCI-H23 lung)?
Answer: Its TGI is 16.6 µM.

Question: What about the GI50 (NCI-H460 lung) of the same compound?
Answer: Its GI50 is 14.8 µM.

Question: And the TGI (NCI-H460 lung)?
Answer: Its TGI is 34.9 µM.

Question: What about the GI50 (NCI-H522 lung) of the same compound?
Answer: Its GI50 is 11.2 µM.

Question: And the TGI (NCI-H522 lung)?
Answer: Its TGI is 35.3 µM.

Question: What about the GI50 (NCI/ADR-RES ovarian) of the same compound?
Answer: The GI50 was 3.34 µM.

Question: What about the TGI (NCI/ADR-RES ovarian) of the same compound?
Answer: Its TGI is 13 µM.

Question: What about the GI50 (OVCAR-3 ovarian) of the same compound?
Answer: Its GI50 is 10.2 µM.

Question: And the TGI (OVCAR-3 ovarian)?
Answer: Its TGI is 24.7 µM.

Question: And the GI50 (OVCAR-4 ovarian)?
Answer: Its GI50 is 1.29 µM.

Question: And the TGI (OVCAR-4 ovarian)?
Answer: Its TGI is 2.6 µM.

Question: And the GI50 (OVCAR-5 ovarian)?
Answer: Its GI50 is 10.7 µM.

Question: What about the TGI (OVCAR-5 ovarian) of the same compound?
Answer: Its TGI is 25.5 µM.

Question: What about the GI50 (OVCAR-8 ovarian) of the same compound?
Answer: The GI50 was 3.76 µM.

Question: What about the TGI (OVCAR-8 ovarian) of the same compound?
Answer: The TGI was 16.2 µM.

Question: And the GI50 (PC-3 prostate)?
Answer: The GI50 was 3.76 µM.

Question: What about the TGI (PC-3 prostate) of the same compound?
Answer: The TGI was 15.6 µM.

Question: What about the GI50 (RPMI-8226 leukemia) of the same compound?
Answer: Its GI50 is 4 µM.

Question: What about the TGI (RPMI-8226 leukemia) of the same compound?
Answer: The TGI was 29.5 µM.

Question: And the GI50 (RXF 393 renal)?
Answer: The GI50 was 10.1 µM.

Question: And the TGI (RXF 393 renal)?
Answer: Its TGI is 23.9 µM.

Question: And the GI50 (SF-268 CNS)?
Answer: Its GI50 is 9.61 µM.

Question: What about the TGI (SF-268 CNS) of the same compound?
Answer: Its TGI is 30.7 µM.

Question: And the GI50 (SF-539 CNS)?
Answer: The GI50 was 7.49 µM.

Question: And the TGI (SF-539 CNS)?
Answer: The TGI was 20.3 µM.

Question: And the GI50 (SK-MEL-2 melanoma)?
Answer: Its GI50 is 3.2 µM.

Question: And the TGI (SK-MEL-2 melanoma)?
Answer: Its TGI is 8.1 µM.

Question: And the GI50 (SK-MEL-28 melanoma)?
Answer: Its GI50 is 13.5 µM.

Question: What about the TGI (SK-MEL-28 melanoma) of the same compound?
Answer: Its TGI is 26.5 µM.

Question: And the GI50 (SK-MEL-5 melanoma)?
Answer: Its GI50 is 5.92 µM.

Question: And the TGI (SK-MEL-5 melanoma)?
Answer: Its TGI is 19.1 µM.

Question: What about the GI50 (SK-OV-3 ovarian) of the same compound?
Answer: The GI50 was 15.7 µM.

Question: And the TGI (SK-OV-3 ovarian)?
Answer: Its TGI is 29.2 µM.

Question: What about the GI50 (SN12C renal) of the same compound?
Answer: Its GI50 is 7.39 µM.

Question: What about the TGI (SN12C renal) of the same compound?
Answer: Its TGI is 24.4 µM.

Question: What about the GI50 (SNB-19 CNS) of the same compound?
Answer: The GI50 was 14.8 µM.

Question: What about the TGI (SNB-19 CNS) of the same compound?
Answer: Its TGI is 31.3 µM.

Question: And the GI50 (SNB-75 CNS)?
Answer: Its GI50 is 12.1 µM.

Question: What about the TGI (SNB-75 CNS) of the same compound?
Answer: Its TGI is 28 µM.

Question: What about the GI50 (SR leukemia) of the same compound?
Answer: Its GI50 is 3.18 µM.

Question: What about the TGI (SR leukemia) of the same compound?
Answer: Its TGI is 19 µM.

Question: And the GI50 (SW-620 colon)?
Answer: Its GI50 is 14.7 µM.

Question: What about the TGI (SW-620 colon) of the same compound?
Answer: Its TGI is 30.9 µM.

Question: What about the GI50 (T-47D breast) of the same compound?
Answer: The GI50 was 2.44 µM.

Question: What about the TGI (T-47D breast) of the same compound?
Answer: Its TGI is 7.43 µM.

Question: What about the GI50 (TK-10 renal) of the same compound?
Answer: Its GI50 is 16.6 µM.

Question: And the TGI (TK-10 renal)?
Answer: Its TGI is 30.6 µM.

Question: And the GI50 (U251 CNS)?
Answer: Its GI50 is 3.03 µM.

Question: And the TGI (U251 CNS)?
Answer: The TGI was 12.5 µM.

Question: What about the GI50 (UACC-257 melanoma) of the same compound?
Answer: Its GI50 is 1.84 µM.

Question: What about the TGI (UACC-257 melanoma) of the same compound?
Answer: Its TGI is 4.48 µM.

Question: And the GI50 (UACC-62 melanoma)?
Answer: The GI50 was 7.57 µM.

Question: What about the TGI (UACC-62 melanoma) of the same compound?
Answer: Its TGI is 21.4 µM.

Question: And the GI50 (UO-31 renal)?
Answer: The GI50 was 12.7 µM.

Question: What about the TGI (UO-31 renal) of the same compound?
Answer: The TGI was 26.6 µM.
